Reference: patent US20100248390A1, “COMPOSITIONS AND METHODS FOR IDENTIFYING LIGANDS OF ODORANT RECEPTORS” (DUKE UNIVERSITY, priority 2009, published 2010)

Key:
[1] = target: T1, mouse odorant receptors (ORs) (Mus musculus, UniProt Q9JHB2); experiment: CRE-luciferase assay of odorant receptor activation (Dual-Glo, Hana3A cells, RTP1S), dose-response EC50; type: cell-based; details: receptor MOR140-1
T1 construct: OR open reading frames were amplified from genomic DNA; expressed in transfected cells; host or cells: Hana3A cells, co-transfected with RTP1S, CRE-luciferase and pRL-SV40
T1 sequence (Q9JHB2 1-309): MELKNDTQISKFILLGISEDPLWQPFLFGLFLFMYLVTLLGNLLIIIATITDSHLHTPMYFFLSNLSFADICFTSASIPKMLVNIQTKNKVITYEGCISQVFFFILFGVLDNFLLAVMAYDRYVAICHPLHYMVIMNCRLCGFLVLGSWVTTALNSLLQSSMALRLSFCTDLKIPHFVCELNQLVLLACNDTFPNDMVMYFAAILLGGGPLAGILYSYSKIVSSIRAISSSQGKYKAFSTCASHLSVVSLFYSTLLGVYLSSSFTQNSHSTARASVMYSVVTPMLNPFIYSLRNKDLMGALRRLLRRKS

[2] = target: T2, mouse odorant receptors (ORs) (Mus musculus, UniProt Q8VGS3); experiment: as above; type: cell-based; details: receptor MOR180-1; read-out: log EC50 of odorant at MOR180-1 (0 = no response) (converted)
T2 construct: OR open reading frames were amplified from genomic DNA; expressed in transfected cells; host or cells: Hana3A cells, co-transfected with RTP1S, CRE-luciferase and pRL-SV40
T2 sequence (Q8VGS3 1-310): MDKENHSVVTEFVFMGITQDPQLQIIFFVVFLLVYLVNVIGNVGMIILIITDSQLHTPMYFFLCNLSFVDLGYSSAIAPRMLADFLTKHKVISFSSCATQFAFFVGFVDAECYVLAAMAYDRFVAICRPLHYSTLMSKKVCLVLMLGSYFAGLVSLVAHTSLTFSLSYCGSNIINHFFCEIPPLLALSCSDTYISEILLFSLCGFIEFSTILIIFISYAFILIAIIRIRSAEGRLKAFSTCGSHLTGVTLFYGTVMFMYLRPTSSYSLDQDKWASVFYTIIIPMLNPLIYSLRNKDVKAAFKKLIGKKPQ

CCCCCC1=C(C)CCC1=O [Dihydroiasmone]
log EC50 (Table 4 value), MOR140-1 [1]: −3.614

CC(=O)Oc1ccccc1 [Phenyl acetate]
EC50 [2]: 661 µM
